Series [1] addresses T1, Hexokinase-4 (Homo sapiens, UniProt P35557).
T1 sequence (P35557 whole entry): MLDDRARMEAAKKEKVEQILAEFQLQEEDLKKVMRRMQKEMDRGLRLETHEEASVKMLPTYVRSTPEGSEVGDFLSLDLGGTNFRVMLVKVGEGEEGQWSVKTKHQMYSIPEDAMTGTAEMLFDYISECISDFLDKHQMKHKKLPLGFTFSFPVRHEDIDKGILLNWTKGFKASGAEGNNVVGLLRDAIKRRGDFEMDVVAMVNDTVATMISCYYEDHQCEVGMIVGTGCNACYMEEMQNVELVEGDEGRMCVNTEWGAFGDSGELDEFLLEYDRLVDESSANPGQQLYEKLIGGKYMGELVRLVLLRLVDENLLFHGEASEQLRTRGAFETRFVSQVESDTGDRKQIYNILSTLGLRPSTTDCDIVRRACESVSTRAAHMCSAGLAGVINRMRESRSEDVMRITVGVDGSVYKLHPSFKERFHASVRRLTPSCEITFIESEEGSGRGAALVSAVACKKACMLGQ

Series [2] addresses T1, Hexokinase-4. This is another data set of the same source.
The next series deals with Rattus norvegicus. The series is described as follows: Glucose lowering effect in po dosed Wistar rat assessed as decrease in plasma glucose level administered 30 mins before glucose challenge by OGTT. It is filed as functional, organism-based.
Series [3] can be described thus: Volume of distribution in Wistar rat at 1 mg/kg, iv and 3 mg/kg, po. The settings on record: in vivo. The class given is ADME, organism-based.
The nature of series [4]: Clearance in Wistar rat at 1 mg/kg, iv and 3 mg/kg, po. Particulars: in vivo. The class given is ADME, organism-based.
Series [5] can be described thus: Half life in Wistar rat at 1 mg/kg, iv. The class given is ADME, organism-based. Further details: dose 1 mg/kg, route intravenous. The settings on record: in vivo.
The nature of series [6]: Cmax in Wistar rat at 1 mg/kg, iv and 3 mg/kg, po. The class given is ADME, organism-based. Particulars: in vivo.
Series [7] can be described thus: Tmax in Wistar rat at 1 mg/kg, iv and 3 mg/kg, po. The class given is ADME, organism-based. Particulars: in vivo.
Series [8] is described as follows: Oral bioavailability in Wistar rat at 3 mg/kg. It is filed as ADME, organism-based. The settings on record: in vivo.

A value given as a limit tells only on which side of the number the result lay.

Broadly, the EC50 is the concentration giving half of the maximal effect. Higher therefore signals a less potent agent. What is called half-life is the time needed for the level to fall by half in the phase considered. A higher half-life goes with slow decline. One may read the Cmax as the highest concentration seen after dosing. In general, Tmax refers to the time at which the peak concentration occurs. By bioavailability is commonly meant the share of a dose that reaches the circulation, judged against a reference dose that is usually intravenous. Read a low bioavailability as poor availability.

For the molecule `Cc1csc(NC(=O)c2cccc(Cl)c2)n1`, the EC50 on Hexokinase-4 [1] was 17000 nM; on Hexokinase-4 [2], 6300 nM.

With `Cc1csc(NC(=O)c2cc(Oc3ccccc3)ccc2N)n1`, the EC50 on Hexokinase-4 [1] was 700 nM; on Hexokinase-4 [2], 130 nM.

Take `Cn1cnnc1Sc1ccc(N)c(C(=O)Nc2ncns2)c1`: the EC50 at Hexokinase-4 [1] came to 490 nM; at Hexokinase-4 [2], 120 nM.

Consider `CCOC(=O)c1csc(NC(=O)c2cc(Sc3nncn3C)ccc2N)n1`, for which the EC50 on Hexokinase-4 [1] was 1100 nM; on Hexokinase-4 [2] it was 420 nM.

As to `CCOc1ccc(N)c(C(=O)Nc2nc(C)cs2)c1`, the results for the half-maximal effective concentration (EC50) at Hexokinase-4 [1] and on Hexokinase-4 [2] were 6800 nM and 1700 nM, respectively.

As for `Cc1csc(NC(=O)c2cc(Sc3nncn3C)ccc2[N+](=O)[O-])n1`, the EC50 on Hexokinase-4 [1] and on Hexokinase-4 [2] was > 10000 nM each time.

With `Cc1cnc(NC(=O)c2cc(Sc3nncn3C)ccc2N)s1`, the EC50 worked out at 330 nM at Hexokinase-4 [1] and 110 nM at Hexokinase-4 [2].

As for `Cn1cnnc1Sc1ccc(N)c(C(=O)Nc2nc(C(F)(F)F)cs2)c1`, the EC50 on Hexokinase-4 [1] was found to be 2700 nM; on Hexokinase-4 [2], 930 nM.

On to `Cc1csc(NC(=O)c2cc(Sc3ccccc3)ccc2N)n1`, for which the EC50 on Hexokinase-4 [1] was 920 nM; on Hexokinase-4 [2] it was 200 nM.

Consider `Cc1csc(NC(=O)c2ccc(Cl)cc2N)n1`, for which the EC50 on Hexokinase-4 [1] and at Hexokinase-4 [2] was > 30000 nM throughout.

For `COc1ccccc1Oc1ccc(N)c(C(=O)Nc2nc(C)cs2)c1`, the EC50 stood at 410 nM at Hexokinase-4 [1] and 120 nM at Hexokinase-4 [2].

As for `CCSc1ccc(N)c(C(=O)Nc2nc(C)cs2)c1`, the EC50 on Hexokinase-4 [1] is 780 nM; on Hexokinase-4 [2] it was 180 nM.

Regarding `Cn1cnnc1Sc1ccc(N)c(C(=O)Nc2nc(CO)cs2)c1`, the EC50 at Hexokinase-4 [1] is 1600 nM; at Hexokinase-4 [2], 420 nM.

With `Cc1csc(NC(=O)c2cc(Oc3ccccc3S(C)(=O)=O)ccc2N)n1`, the values for the EC50 at Hexokinase-4 [1] and on Hexokinase-4 [2] were 510 nM and 130 nM, respectively.

As to `Cn1cnnc1Sc1ccc(N)c(C(=O)Nc2ccccn2)c1`, the values for the EC50 on Hexokinase-4 [1] and at Hexokinase-4 [2] were 1200 nM and 230 nM, respectively.

On to `Cc1csc(NC(=O)c2cccc(Sc3nncn3C)c2)n1`, for which the EC50 on Hexokinase-4 [1] came to 7300 nM; on Hexokinase-4 [2], 1500 nM.

As for `Cc1csc(NC(=O)c2cc(Sc3nccn3C)ccc2N)n1`, the EC50 at Hexokinase-4 [1] turned out to be 230 nM; on Hexokinase-4 [2], 100 nM.

Take `Cc1csc(NC(=O)c2cc(Oc3ccc(F)cc3)ccc2N)n1`: the figures for the EC50 on Hexokinase-4 [1] and at Hexokinase-4 [2] were 1700 nM and 400 nM, respectively.

On to `Cc1csc(NC(=O)c2cc(Sc3ncc[nH]3)ccc2N)n1`, for which the EC50 at Hexokinase-4 [1] was 1600 nM; at Hexokinase-4 [2], 380 nM.

For the molecule `Cc1csc(NC(=O)c2cc(Oc3ccccc3F)ccc2N)n1`, the EC50 turned out to be 260 nM at Hexokinase-4 [1] and 100 nM at Hexokinase-4 [2].

With `Cc1csc(NC(=O)c2cc(Sc3nncn3C)ccc2N)n1`, in the series with Rattus norvegicus, the Activity entry is “Dose-dependent effect”. In addition, the Vd in series [3] stood at 0.4 L/kg. The clearance in series [4] worked out at 14.3 mL/min/kg. Besides, the half-life in [5] was 54 min. In addition, the Cmax in series [6] turned out to be 8.5 µM. For the same molecule, the Tmax in series [7] amounted to 30 min. In [8], this molecule showed a bioavailability of 100%.

For `Nc1ccc(Cl)cc1C(=O)Nc1nccs1`, the values for the EC50 at Hexokinase-4 [1] and at Hexokinase-4 [2] were 11000 nM and 2600 nM, respectively.

For the molecule `Nc1ccccc1C(=O)Nc1nccs1`, the EC50 on Hexokinase-4 [1] and at Hexokinase-4 [2] was > 30000 nM throughout.

For the molecule `Cc1csc(NC(=O)c2cc(Oc3cccc(F)c3)ccc2N)n1`, the EC50 worked out at 600 nM on Hexokinase-4 [1] and 140 nM at Hexokinase-4 [2].

For `Cc1csc(NC(=O)c2cc(Sc3ccccn3)ccc2N)n1`, the EC50 at Hexokinase-4 [1] was found to be 1200 nM; on Hexokinase-4 [2], 220 nM.

As to `Cn1cnnc1Sc1ccc(N)c(C(=O)Nc2nccs2)c1`, the EC50 on Hexokinase-4 [1] is 350 nM; at Hexokinase-4 [2] it was 130 nM.

For `Cc1nsc(NC(=O)c2cc(Sc3nncn3C)ccc2N)n1`, the EC50 on Hexokinase-4 [1] was determined as 640 nM; at Hexokinase-4 [2], 180 nM.

As to `Cn1cnnc1Sc1ccc(N)c(C(=O)Nc2cccnc2)c1`, the EC50 on Hexokinase-4 [1] and at Hexokinase-4 [2] was > 10000 nM each time.

In the case of `Cn1cnnc1Sc1ccc(N)c(C(=O)Nc2ccccc2)c1`, the EC50 at Hexokinase-4 [1] and on Hexokinase-4 [2] was > 10000 nM each time.

As for `Cc1csc(NC(=O)c2cc(Sc3nnc[nH]3)ccc2N)n1`, the EC50 worked out at 2400 nM at Hexokinase-4 [1] and 540 nM at Hexokinase-4 [2].

On to `Cc1csc(NC(=O)c2cc(Cl)ccc2N)n1`, for which the EC50 on Hexokinase-4 [1] stood at 6500 nM; at Hexokinase-4 [2], 1400 nM.

On to `Cn1cnnc1Sc1ccc(N)c(C(=O)Nc2ccncc2)c1`, for which the EC50 on Hexokinase-4 [1] and on Hexokinase-4 [2] was > 10000 nM throughout.

The record behind these values is ChEMBL document CHEMBL1152887, “Identification of novel and potent 2-amino benzamide derivatives as allosteric glucokinase activators” (Bioorg Med Chem Lett, 2009).
